Values quoted from earlier work as cited in US6107305A, “Use of pyrazolo [3,4-b] pyridine as cyclin dependent kinase inhibitors” (Bristol-Myers Squibb Company, priority 1998, dated 2000).

Columns and labels:
apoptosis = details: J. Cell Sci., 108, 2897 (1995)

Structure (SMILES) | effect of sequence of administration with anticancer agents on cytotoxic activity (cytotoxic activity) | synergism with known cytotoxic agents in inducing apoptosis (apoptosis)
CN1CC[C@H](c2c(O)cc(O)c3c(=O)cc(-c4ccccc4Cl)oc23)[C@H](O)C1 [flavopiridol] | affected by the sequence of administration with anticancer agents | –
Cn1cnc2c(NCc3ccccc3)nc(NCCO)nc21 [olomucine] | – | act synergistically with known cytotoxic agents in inducing apoptosis
